# In patent US20050288292A1, “Pharmaceutical formulation and its use in the treatment of inner ear diseases” (priority 2002, published 2005):
# Experiments:
# [1] = tested on: muscular tinnitus (myognathic tinnitus); experiment: Intravenous Caroverin in muscular (myognathic) tinnitus; assay type: in vivo; details: intravenous administration
# From the text: In addition, new trials by the inventor have shown that Caroverin is not indicated for the treatment of all forms of tinnitus. […] Muscular or myognathic tinnitus is identified by imparting an electrical charge to the chewing musculature, whereby the intensity and frequency of the symptoms of tinnitus can be altered. Myognathic tinnitus can substantially be caused to disappear when the tendon bundles of the middle ear musculature that operates the chain of auditory ossicles are surgically sectioned (tenotomy). The precise mechanism involved in this effect is still unclear.
# [2] = tested on: cochlear post-synaptic tinnitus; details: infusion; according to EP 0 542 689; cited from earlier work
smiles,measurement,setting,value
"CCN(CC)CCn1c(=O)c(Cc2ccc(OC)cc2)nc2ccccc21 [Caroverin, 1-diethylaminoethyl-3-(p-methoxybenzyl)-1,2-dihydro-quinoxaline-2-one]",response of muscular (myognathic) tinnitus,[1],not responsive
same,treatability of cochlear post-synaptic tinnitus,[2],treatable
